Where “and” joins values, the source holds several entries; their conditions need not be identical. Equal entries are not always repeated. Entries after “also recorded” stand apart in the source; their conditions may differ. Where two headings read alike, the source gives them in different places.
Columns and labels:
DENV2 (TSV01 strain) = assay: Cell-based flaviviral immunodetection assay (CFI), DENV2; settings: Dengue virus, DENV2, BHK-21, 48 h, DENV2, BHK21 cells
Protocol: BHK21 cells were seeded at 1.3×104 in 96-well plate and incubated overnight at 37° C. in 5% CO2 incubator. Confluent monolayer of BHK21 cells were infected with DENV2 (TSV01 strain) at an MOI (multiplicity of infection) 0.3 in the presence of various concentrations of test compounds and incubated for 1 hour at 37° C. in 5% CO2 incubator. Infected cells were incubated with test compounds for another 48 hours at 37° C. in 5A CO2. Cells were fixed with methanol and mouse monoclonal antibody 4G2 was used to detect DENV E protein, which was quantified using a secondary anti-mouse antibody conjugated with horseradish peroxidase (HRP). Absorbance was read at 450 nm and dose-response curve was plotted accordingly. The 50% effective concentration (EC50), that is, the concentration of the test compound that decreased the level of viral E protein production by 50%, was calculated by nonlinear regression analysis.

DENV4 = assay: Cell-based flaviviral immunodetection assay (CFI), DENV4; settings: Dengue virus, BHK-21; DENV4, BHK21 cells, 48 hours
DENV1-4 = assay: Inhibition of replication across dengue serotypes (CFI); format: cell-based; settings: Dengue virus, DENV1 / DENV2, read-out: EC50 values for the other three serotypes
EDEM, XBP1, CHOP = assay: Host gene products during drug-induced unfolded protein response; format: cell-based; settings: data not shown
Text: The pro-survival products enhance the clearance of misfolded proteins by directing them to the proteosome for degradation.

[1] = tested on: DENV2 strain NGC subgenomic replicon; assay: Replicon assay (luciferase, A549 replicon cell line); format: cell-based; settings: Dengue virus, A549 replicon cells, 48 hour
Protocol: The DENV subgenomic replicon was derived from the DENV2 strain NGC and consists of a luciferase reporter and a puromycin resistance gene for stable transfection. (7) Only the nonstructural proteins NS1, NS2A, NS2B, NS3, NS4A, NS4B, and NS5 were represented in the replicon construct. Of the nonstructural proteins, only NS1 is known to be glycosylated.
The stably transfected A549 replicon cell line was plated into a 96-well plate in the presence of various concentrations of test compounds and incubated for 48 hour at 37° C. in 5% CO2 incubator. The luciferase activity of the replicon treated with various concentrations of the test compound was measured using EnduRen (Promega) at a 1:1000 dilution followed by incubation for 2 hrs before the luminescence was read using a Tecan plate-reader. The data was plotted against the log transformation of the concentration of the compounds to obtain a dose-response curve to calculate the EC50 value.

DENV2 [2] = assay: Lethal ADE mouse model of viremia; format: in vivo
Protocol: To model ADE, mice were injected IP (intraperitoneal) with […] of mouse monoclonal antibody against the (DENV) E protein (4G2 clone) one day prior to infection. (9) For treatment, celgosivir was injected IP once or twice daily for a total of 5 days. Mice were monitored every day till Day 12 post infection. The data were plotted as Kaplan-Meier curves using Prism 5.0 software.
To evaluate the effect of dose and dose schedule, four drug regimens were studied in the ADE viremia model: 10, 25 and 50 mg/kg BID and 100 mg/kg QD (once daily). For the BID schedule, survival increased with increasing dose with survival rates of 13%, 63% and 100% for 10, 25, and 50 mg/kg BID.
Even when treatment was delayed (FIG. 5A), celgosivir (50 mg/kg BID) exerted a protective effect. In this experiment, survival at Day 12 was 100%, 75%, and 50% when treatment was immediate, delayed 24 hr or delayed 48 hr after DENV2 infection, respectively, in the ADE model; by contrast, none (0%) of the sham-treated mice survived past day 5 (FIG. 5B). Viremia, as determined by plaque assay, in celgosivir-treated mice (50 mg/kg BID) was 8.3% of levels in sham-treated mice after only 1 day of dosing. By study day 3, viremia had increased in untreated mice by more than 7-fold.

[3] = Pharmacokinetics mouse studies; settings: in vivo
Protocol: The concentration profile of celgosivir and castanospermine in the mouse after a single IP dose of celgosivir at a dose of 50 mg/kg is illustrated in FIG. 6A. Serum concentrations were measured using a validated LC/MS/MS assay performed. Celgosivir was measurable in serum only up to 1 hr post-dosing.
The castanospermine concentration profile after dosing at 50 mg/kg BID for 5 days was calculated by nonparametric superposition (FIG. 6B). This dosing regimen of celgosivir protected 100% of mice in the lethal ADE dengue infection model.

DENV2 [4] = settings: cited from earlier work
[5] = set-up: tmax: unit not given here; settings: cited from earlier work
[6] = cited from earlier work
[7] = humans, cited from earlier work
[8] = healthy rats, single dose 35 mg/kg PO

CCCC(=O)O[C@H]1CN2CC[C@H](O)[C@@H]2[C@@H](O)[C@@H]1O.Cl [Celgosivir, celgosivir]
EC50 (DENV2 (TSV01 strain)): 220 nM
EC50 (DENV4): 310 ± 120 nM
EC50 (DENV1-4): 310 to 650 nM
apoptotic markers such as CHOP (EDEM, XBP1, CHOP): down-regulated
pro-survival host gene products such as EDEM and XBP1 (EDEM, XBP1, CHOP): upregulation
EC50 [1]: 2200 nM
survival at Day 12 (DENV2 [2]; 10 mg/kg BID for 5 days): 12% and 13%
survival at Day 12 (DENV2 [2]; 25 mg/kg BID for 5 days): 62% and 63%
survival at Day 12 (DENV2 [2]; 50 mg/kg BID for 5 days, immediate treatment): 100%
viremia, of levels in sham-treated mice (DENV2 [2]; 50 mg/kg BID, after 1 day of dosing, plaque assay): 8.3%
viremia, of levels in sham-treated mice (DENV2 [2]; 50 mg/kg BID, study day 3, delayed 24 hr): 26%
viremia, of levels in sham-treated mice (DENV2 [2]; 50 mg/kg BID, study day 3, delayed 48 hr): 69%
viremia, of levels in sham-treated mice (DENV2 [2]; 50 mg/kg BID, study day 3, immediate treatment): 17%
survival at Day 12 (DENV2 [2]; 50 mg/kg BID, treatment delayed 24 hr): 75%
survival at Day 12 (DENV2 [2]; 50 mg/kg BID, treatment delayed 48 hr): 50%
survival (in words) (DENV2 [2]; 100 mg/kg once daily (QD)): no mice survived past day 6; also recorded: none surviving past Day 6
survival at Day 12 (DENV2 [2]; 100 mg/kg once daily (QD)): 0%
absorption compared with castanospermine [3]: more rapidly and efficiently absorbed than castanospermine
species detected in plasma after celgosivir [3]: only castanospermine was detected in the plasma
time celgosivir measurable in serum post-dosing ([3]; ip, 50 mg/kg): up to 1 hr
reduction of viremia (DENV2 [4]; given at the time of infection): 88%
reduction of viremia (DENV2 [4]; treatment delayed by 24 hours): 55%
mean Cmax in the portal vein ([5]; 400 mg/kg celgosivir PO): 1.9 µg/mL
AUC [5, 8]: 10.5
Cmax [5, 8]: 8.76 ± 1.15 µg/mL
tmax [5, 8]: 0.44±0.01
AUC 0-60 min ([5]; portal vein, 400 mg/kg celgosivir PO): 1 µg·h/mL
Oral bioavailability ([5]; rat): 93%
half-life ([5]; rat): 2.7 h
oral clearance (CL/F) ([5]; rat): 2.5 L/h/kg
Cmax and AUC versus dose ([6]; humans): increase in proportion to dose
oral clearance ([6]; humans): 12 L/h
terminal half-life ([6]; humans): 18 h
conversion in humans ([6]; only castanospermine detected in plasma): rapidly convert to castanospermine
maximum tolerated dose (MTD) ([7]; HIV drug trials, for 184 days): 400 mg per day
adverse events [7]: largely gastrointestinal, namely flatulence and diarrhea, of mild to moderate intensity
serious adverse events [7]: No serious adverse events have been reported
serum creatine kinase [7]: Asymptomatic elevations
time to reversal of creatine kinase elevations after discontinuation [7]: ≤ 2 weeks

From patent publication US10517854B2, “Dosing regiments of celgosivir for the treatment of dengue” (60 Degrees Pharmaceuticals, LLC, priority 2013, dated 2019)
